Columns and labels:
[1] = molecular target: T1, human CYP17 in H295R adrenocortical carcinoma cells (Homo sapiens, UniProt P05093); experiment: Cell-based human CYP17 inhibition assay, H295R cells; settings: 16 hours, read-out: CYP17 (human H295R adrenal cells)
T1 construct: H295R Adrenocortical carcinoma cells [NCI-H295A, ATCC Number CRL-2128, American Type Culture Collection; host or cells: H295R adrenocortical carcinoma cells
T1 sequence (P05093 1-508): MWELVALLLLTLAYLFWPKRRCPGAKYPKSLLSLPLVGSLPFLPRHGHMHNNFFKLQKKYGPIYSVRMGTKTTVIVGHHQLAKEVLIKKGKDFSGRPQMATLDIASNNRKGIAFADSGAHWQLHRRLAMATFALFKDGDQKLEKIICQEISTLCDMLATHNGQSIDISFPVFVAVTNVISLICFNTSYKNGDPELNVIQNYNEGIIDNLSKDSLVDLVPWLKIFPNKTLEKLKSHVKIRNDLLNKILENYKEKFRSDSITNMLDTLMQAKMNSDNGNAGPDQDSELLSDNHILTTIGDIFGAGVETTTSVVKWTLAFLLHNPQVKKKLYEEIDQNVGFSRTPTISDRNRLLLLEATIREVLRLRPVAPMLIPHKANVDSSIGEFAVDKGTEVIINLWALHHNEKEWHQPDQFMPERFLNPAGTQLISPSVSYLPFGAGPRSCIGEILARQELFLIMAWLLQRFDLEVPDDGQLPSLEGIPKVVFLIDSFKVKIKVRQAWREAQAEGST
Method: Cell-Based Human CYP17 Inhibition Assay
1. H295R Adrenocortical Carcinoma Cells and Growth Media: The media for the H295R Adrenocortical carcinoma cells [NCI-H295A, ATCC Number CRL-2128, American Type Culture Collection, Manassas, Va., US] (500 mL) was a DMEM:F12 Mix 1:1 with 5% (2 mL) BD Nu Serum; 1% (5 mL) ITS+Premix [BD Biosciences] and 1% Penstrep. 2. LNCap-CYP17 Cells and Growth Media: Full length hCYP17a1 gene (NCBI Reference Sequence: NM_000102.3) was cloned in pcDNA3.1(+) vector between HindIII and XhoI site. The pcDNA3.1(+) vector contains the Neomycin resistance gene and was used for selection of stable cell line. The hCYP17a1 containing pcDNA3.1(+) was transfected into LNCap cells to create the LNCap-CYP17 cell line. The media for the LNCaP-CYP17 cells was RPMI 1640, 10% FBS, 1% PenStrep, Geneticin 400 μg/mL.
The H295R cells or LNCaP-hCYP17 cells were subcultured and 30,000 cells per well were seeded in a poly-d lysine plate and incubated overnight at 37° C. The next day the media was removed and 200 μL of fresh media with ^3H3-17α-hydroxy-pregnenolone (1:1000) was added. 50 μL of serially diluted compounds from a 5× plate (5 times the final desired concentration) was added. The working concentration range for active, new compounds started from a high concentration of 10 μM with 3-fold serial dilutions generating up to 10 concentrations. The serial dilution in the 100× plate (in DMSO) and the stamping of a 5× plate (in media) from the 100× plate were carried out using a TECAN liquid handling device.
The plates were incubated overnight (16 hours) at 37° C. After 16 hours, the media was removed (approximately 220 μL) and an equal amount of chloroform was added, mixed and incubated for 30 minutes at 4 degrees. The plate was centrifuged at 4000 rpm for 15 minutes at 4° C., following which the top aqueous layer was carefully removed and added into a new deep well plate. An equal volume of activated 5% charcoal was added, mixed and incubated for 30 minutes at 4° C. The plate was then centrifuged at 4000 rpm for 15 minutes at 4° C. and the top layer carefully separated, avoiding any charcoal contamination, and placed in a white, clear bottom plate (plate cat #3610, Corning Life Sciences). An equal volume of Microscint™ 40 was added and mixed well. Following the incubation for 30 minutes, readings for the radiotracer were taken using a Microbeta® trilux.

[2] = molecular target: T2, rat CYP17 (rat testicular microsomes) (Rattus norvegicus, UniProt P11715); experiment: CYP17 inhibition assay in rat testicular microsomes; type: biochemical
T2 construct: Rat testis tissue was collected and disrupted with 30 strokes of a glass homogenizer; from tissue; host or cells: rat testis (microsomes)
T2 sequence (P11715 1-507): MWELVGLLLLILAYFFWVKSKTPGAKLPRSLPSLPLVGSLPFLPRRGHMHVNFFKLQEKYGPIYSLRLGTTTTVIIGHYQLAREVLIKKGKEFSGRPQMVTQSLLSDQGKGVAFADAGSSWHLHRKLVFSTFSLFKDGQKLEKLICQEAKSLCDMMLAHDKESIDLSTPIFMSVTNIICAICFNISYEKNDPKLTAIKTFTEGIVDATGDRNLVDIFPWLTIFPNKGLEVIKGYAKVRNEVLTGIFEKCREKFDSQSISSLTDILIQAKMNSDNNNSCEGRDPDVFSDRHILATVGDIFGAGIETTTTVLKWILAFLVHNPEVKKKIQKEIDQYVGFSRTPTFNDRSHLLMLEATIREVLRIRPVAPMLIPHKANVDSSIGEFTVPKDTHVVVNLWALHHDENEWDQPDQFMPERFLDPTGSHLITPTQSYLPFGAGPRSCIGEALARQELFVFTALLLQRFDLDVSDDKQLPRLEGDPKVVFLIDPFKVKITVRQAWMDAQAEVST
Method: CYP17 Inhibition Assay in Rat Testicular Microsomes (Rat CYP17) or Yeast Microsome Overexpressing Human CYP17
1. NADPH (Sigma): A working stock was prepared by adding 25 μL of 6.5 mM NADPH in each tube. The final concentration of NADPH used in the assay was 325 μM.
2. Potassium Phosphate Buffer: One molar (1M) solutions of K2HPO4 and KH2PO4 were prepared. Eight mL of the 1 M KH2PO4 and 1.98 mL of the 1 M K2HPO4 were combined and the pH was adjusted to 7.4.
3. ^3H3-17α-hydroxypregnenolone (American Radiolabeled Chemicals, Inc., stock 1 μCi/μL): A 1:1 dilution of ^3H3-17α-hydroxypregnenolone in ethanol was prepared by combining 100 μL ^3H3-17α-hydroxypregnenolone+100 μL ethanol for one complete 96 well plate. For the reaction, 2 μL of the diluted ^3H3-17α-hydroxypregnenolone was added in each tube, i.e., 1 μCi/reaction. 4. Microsome Isolation Buffer: The microsome isolation buffer was prepared by combining 250 mM Sucrose, 5 mM EDTA, 10 mM Tris HCl, 4 mM DTT, and adjusting to pH 7.4. 5. TEG Buffer: The TEG buffer was prepared by combining 50 mM Tris HCl, 1 mM EDTA, and 20% Glycerol. 6. Rat Testicular Microsomes: Rat testis tissue was collected and disrupted with 30 strokes of a glass homogenizer on ice with 250 μL of microsome isolation buffer, followed by centrifugation at 10,000 g for 10 minutes at 4° C. The supernatant was collected and centrifuged at 100,000 g for 45 minutes at 4° C. The pellet was dissolved in TEG Buffer and the protein was quantified. The homogenized microsome samples were then frozen at −80° C. • 7. Yeast Microsomes which overexpress the human CYP17 enzyme were obtained from Premas Biotech, India.
Potassium phosphate buffer (470 μL) was prepared as described above and was added to each well of a deep well plate. The test compound was diluted using a TECAN liquid handler and 5 μL of diluted compound was transferred to each well (96 deep well/1 mL). A solution (25 μL) of 6.5 mM NADPH was added (final concentration of 325 μM in the assay). ^3H3-17α-hydroxypregnenolone (2 μL of the working stock) was added to each tube. The plates were then pre-incubated for 15 minutes at 37° C. Following the pre-incubation, either 5 μL rat testicular microsomes (150-160 μg) or 5 μL of yeast microsomes expressing human CYP17 (1.7 pmol), was added. Incubation was at 37° C. for 60 minutes in the presence of oxygen. The plates were then placed in ice and chloroform (500 μL) was added, mixed well and incubated at 4° C. for 20 minutes. The plates were then centrifuged at 1000 rpm for 15 minutes at 4° C.
A portion (300 μL) of the aqueous solution was collected and mixed with a 5% aqueous suspension of activated charcoal (300 μL). The plates were then incubated at 4° C. for 30 minutes, after which the plates were centrifuged at 1000 rpm for 15 minutes at 4° C. From this, 125 μL of the aqueous solution was collected and plated into a 96 well plate. Microscint™ 40 [125 μL, Perkin-Elmer; containing a mixture of a polymer based on alkylphenolethoxylate (20-40%), diethanolamine-phosphoric acid ester ammonium salt (10-20%), sodium dioctyl sulphosuccinate (2.5-10%), triethyl phosphate (2.5-10%), 3,6-dimethyl-4-octyne-3,6-diol (≦2.5%), a polymer based on nonylphenolethoxylate (≦2.5%), diisopropyl naphthalene isomers (40-60%), 2,5-diphenyloxazole (≦2.5%), and 9,10-dimethylanthracene] was added and mixed well. After 30 minutes of incubation, the samples were analyzed with a MicroBeta® Trilux microplate liquid scintillation counter and luminometer (Perkin-Elmer).

## CC(O)(c1ccncc1)c1cnc(-c2ccc(C(F)(F)F)cc2)s1 (stereo not drawn) [Example 26, 1-(Pyridin-4-yl)-1-(2-(4-(trifluoromethyl)phenyl)thiazol-5-yl)ethanol]
[1]
  IC50: 50 to 200 nM
[2]
  IC50: < 50 nM

## CC(O)(c1ccncc1)c1cnc(-c2cncnc2)s1 (stereo not drawn) [Example 64, 1-(pyridin-4-yl)-1-(2-(pyrimidin-5-yl)thiazol-5-yl)ethanol]
[1]
  IC50: 201 to 10000 nM
[2]
  IC50: < 50 nM

## CC(O)(c1ccncc1)c1cc(-c2ccc(F)cc2)n[nH]1 (stereo not drawn) [Example 49, 1-(3-(4-fluorophenyl)-1H-pyrazol-5-yl)-1-(pyridin-4-yl)ethanol]
[1]
  IC50: 201 to 10000 nM
[2]
  IC50: < 50 nM

## CC(=O)NC(C)(c1ccncc1)c1cnc(-c2ccc(F)cc2)s1 (stereo not drawn) [Example 69, N-(1-(2-(4-Fluorophenyl)thiazol-5-yl)-1-(pyridin-4-yl)ethyl)acetamide]
[1]
  IC50: 201 to 10000 nM
[2]
  IC50: 50 to 200 nM

## CC(O)(c1ccncc1)c1cnc(-c2ccccc2)s1 (stereo not drawn) [Example 51, 1-(2-phenylthiazol-5-yl)-1-(pyridin-4-yl)ethanol]
[1]
  IC50: < 50 nM
[2]
  IC50: < 50 nM

## CC(O)(c1ccncc1)c1cnc(-c2ccc(F)cc2)o1 (stereo not drawn) [Example 23, 1-(2-(4-Fluorophenyl)oxazol-5-yl)-1-(pyridin-4-yl)ethanol]
[1]
  IC50: 201 to 10000 nM
[2]
  IC50: < 50 nM

## CCC(O)(c1ccncc1)c1ncc(-c2cn[nH]c2)o1 (stereo not drawn) [Example 57, 1-(5-(1H-pyrazol-4-yl)oxazol-2-yl)-1-(pyridin-4-yl)propan-1-ol]
[1]
  IC50: 201 to 10000 nM
[2]
  IC50: 50 to 200 nM

## CCC(O)(c1ccncc1)c1nnc(-c2ccc(F)cc2)s1 (stereo not drawn) [Example 21, 1-(5-(4-fluorophenyl)-1,3,4-thiadiazol-2-yl)-1-(pyridin-4-yl)propan-1-ol]
[1]
  IC50: 201 to 10000 nM
[2]
  IC50: < 50 nM

## CCC(O)(c1ccncc1)c1ncc(-c2ccc(F)cc2)s1 (stereo not drawn) [Example 13, 1-(5-(4-Fluorophenyl)thiazol-2-yl)-1-(pyridin-4-yl)propan-1-ol]
[1]
  IC50: 201 to 10000 nM
[2]
  IC50: < 50 nM

## CC(O)(c1ccncc1)c1cc(-c2ccc(F)cc2)on1 (stereo not drawn) [Example 50, 1-(5-(4-fluorophenyl)isoxazol-3-yl)-1-(pyridin-4-yl)ethanol]
[1]
  IC50: 50 to 200 nM
[2]
  IC50: < 50 nM

## CC(O)(c1ccncc1)c1nc(-c2ccc(F)cc2)no1 (single isomer, unassigned; (-)) [Example 35, (−)-1-(3-(4-fluorophenyl)-1,2,4-oxadiazol-5-yl)-1-(pyridin-4-yl)ethanol]
[1]
  IC50: 201 to 10000 nM
[2]
  IC50: < 50 nM

## COc1ccc(-c2ccc(C(C)(O)c3ccncc3)nc2)cc1F (stereo not drawn) [Example 6, 1-(5-(3-fluoro-4-methoxyphenyl)-pyridin-2-yl)-1-(pyridin-4-yl)ethanol]
[1]
  IC50: 50 to 200 nM
[2]
  IC50: < 50 nM

## Cn1cc(-c2ncc(C(C)(O)c3ccncc3)o2)ccc1=O (stereo not drawn) [Example 60, 5-(5-(1-hydroxy-1-(pyridin-4-yl)-ethyl)oxazol-2-yl)-1-methylpyridin-2(1H)-one]
[1]
  IC50: 201 to 10000 nM
[2]
  IC50: 201 to 10000 nM

## CC(O)(c1ccncc1)c1ccc(-c2ccc(C#N)nc2)cn1 (stereo not drawn) [Example 12, 6′-(1-Hydroxy-1-(pyridin-4-yl)ethyl)-[3,3′-bipyridine]-6-carbonitrile]
[1]
  IC50: 50 to 200 nM
[2]
  IC50: < 50 nM

## Cn1cc(-c2ccc(C(C)(O)c3ccncc3)s2)ccc1=O (single isomer, unassigned; (+)) [Example 16, (+)-5-(5-(1-hydroxy-1-(pyridin-4-yl)ethyl)thiophen-2-yl)-1-methylpyridin-2(1H)-one]
[1]
  IC50: 50 to 200 nM
[2]
  IC50: 50 to 200 nM

## CC(O)(c1ccncc1)c1nsc(-c2ccc(F)cc2)n1 (stereo not drawn) [Example 53, 1-(5-(4-fluorophenyl)-1,2,4-thiadiazol-3-yl)-1-(pyridin-4-yl)ethanol]
[1]
  IC50: 201 to 10000 nM
[2]
  IC50: 50 to 200 nM

## CC(O)(c1ccncc1)c1ccc(-c2ccc(F)cc2)o1 (stereo not drawn) [Example 37, 1-(5-(4-fluorophenyl)furan-2-yl)-1-(pyridin-4-yl)ethanol]
[1]
  IC50: 50 to 200 nM
[2]
  IC50: 50 to 200 nM

## CC(O)(c1ccncc1)c1cc(-c2ccc(F)cc2)sn1 (stereo not drawn) [Example 63, 1-(5-(4-fluorophenyl)isothiazol-3-yl)-1-(pyridin-4-yl)ethanol]
[1]
  IC50: < 50 nM
[2]
  IC50: < 50 nM

Source: patent publication US8809372B2, “Pyridine derivatives” (Endo Pharmaceuticals, Inc., priority 2011, dated 2014)
